Results reported in article PMC12298351, “Novel 3,19-(N-Phenyl-3-(4-fluorophenyl)-pyrazole) Acetal of Andrographolide Promotes Cell Cycle Arrest and Apoptosis in MDA-MB-231 Breast Cancer Cells” (Pharmaceuticals, 2025).

Columns and labels:
[1] = tested on: OVCAR-4; assay type: cell-based; settings: OVCAR-4, Ovarian
[2] = tested on: HCC-2998; settings: HCC-2998, Colon
[3] = tested on: SK-MEL-2; settings: SK-MEL-2, Melanoma
[4] = tested on: U251; settings: U251, CNS
[5] = tested on: EKVX
[6] = tested on: TK-10; assay type: cell-based; settings: TK-10, Renal
[7] = tested on: OVCAR-8; settings: OVCAR-8, Ovarian
[8] = tested on: MOLT-4; settings: MOLT-4, Leukemia
[9] = tested on: HCT-15; settings: HCT-15, Colon
[10] = tested on: A498; settings: A498, Renal
[11] = tested on: RPMI-8226; settings: RPMI-8226, Leukemia
[12] = tested on: NCI-H23
[13] = tested on: SF-539; settings: SF-539, CNS
[14] = tested on: PC-3; settings: PC-3, Prostate
[15] = DPPH radical scavenging assay; settings: 25 µM test compound, 0.1 mM DPPH, acetonitrile, 30 min
In short: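 Compounds at 25 µM in acetonitrile mixed 1:2 with 0.1 mM DPPH in acetonitrile, kept 30 min in the dark at room temperature. Absorbance read at 517 nm; % scavenging = (Ac − As)/Ac × 100, Ac being DPPH blank. Ascorbic acid positive control.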

[16] = tested on: RXF 393; settings: RXF 393, Renal
[17] = tested on: HCT-116; assay type: cell-based; settings: HCT-116, Colon
[18] = tested on: SR
[19] = tested on: NCI-H522
[20] = tested on: HL-60(TB)
[21] = tested on: T-47D
[22] = tested on: CCRF-CEM
[23] = tested on: MDA-MB-435; settings: MDA-MB-435, Melanoma
[24] = tested on: SF-295; settings: SF-295, CNS
[25] = tested on: HOP-62
[26] = tested on: M14; assay type: cell-based; settings: M14, Melanoma
[27] = tested on: OVCAR-3; settings: OVCAR-3, Ovarian
[28] = tested on: UACC-62; settings: UACC-62, Melanoma
[29] = read-out: 50% lethal concentration (LC50)
[30] = read-out: 50% lethal concentration (LC50), Leukemia

C=C1CCC2C3(C)COC(c4cn(-c5ccccc5)nc4-c4ccccc4)OC3CCC2(C)C1CC=C1C(=O)OCC1O (stereo not drawn) [1a]
GI50 [1]: 2.31 µM
CC50 [1, 29]: > 100 µM
GI50 [2]: 1.68 µM
Total growth inhibition (TGI) [2]: 3.11 µM
CC50 [2, 29]: 5.76 µM
GI50 [3]: 1.74 µM
Total growth inhibition (TGI) [3]: 3.54 µM
CC50 [3, 29]: 7.2 µM
GI50 [4]: 1.84 µM
Total growth inhibition (TGI) [4]: 3.71 µM
CC50 [4, 29]: 7.48 µM
Total growth inhibition (TGI) ([5]; Non-Small Cell Lung): 4.66 µM
GI50 ([5]; Non-Small-Cell Lung): 2.07 µM
CC50 ([5]; read-out: 50% lethal concentration (LC50), Non-Small Cell Lung): > 100 µM
GI50 [6]: 1.78 µM
Total growth inhibition (TGI) [6]: 3.39 µM
CC50 [6, 29]: 6.46 µM
GI50 [7]: 1.81 µM
Total growth inhibition (TGI) [7]: 4.02 µM
CC50 [7, 29]: > 100 µM
GI50 [8]: 1.97 µM
Total growth inhibition (TGI) [8]: > 100 µM
CC50 [8, 29]: > 100 µM
GI50 [9]: 1.72 µM
Total growth inhibition (TGI) [9]: 3.45 µM
CC50 [9, 29]: 6.91 µM
GI50 [10]: 2.34 µM
Total growth inhibition (TGI) [10]: 6.47 µM
CC50 [10, 29]: 27.7 µM
GI50 [11]: 2.02 µM
Total growth inhibition (TGI) [11]: 8.62 µM
CC50 [11, 29]: > 100 µM
Total growth inhibition (TGI) ([12]; NCI-H23, Non-Small Cell Lung): 3.08 µM
GI50 ([12]; NCI-H23, Non-Small-Cell Lung): 1.69 µM
CC50 ([12]; read-out: 50% lethal concentration (LC50), NCI-H23, Non-Small Cell Lung): 5.64 µM
GI50 [13]: 1.84 µM
Total growth inhibition (TGI) [13]: 3.26 µM
CC50 [13, 29]: 5.77 µM
GI50 [14]: 1.95 µM
Total growth inhibition (TGI) [14]: 4.7 µM
CC50 [14, 29]: 66.9 µM
% DPPH radical scavenging activity [15]: 58.66%
GI50 [16]: 1.4 µM
Total growth inhibition (TGI) [16]: 2.84 µM
CC50 [16, 29]: 5.76 µM
GI50 [17]: 1.61 µM
Total growth inhibition (TGI) [17]: 3.55 µM
CC50 [17, 29]: 7.83 µM
GI50 ([18]; Leukemia): 3.79 µM
Total growth inhibition (TGI) ([18]; Leukemia): > 100 µM
CC50 [18, 30]: > 100 µM
Total growth inhibition (TGI) ([19]; NCI-H522, Non-Small Cell Lung): 3.86 µM
GI50 ([19]; NCI-H522, Non-Small-Cell Lung): 1.9 µM
CC50 ([19]; read-out: 50% lethal concentration (LC50), NCI-H522, Non-Small Cell Lung): 7.85 µM
GI50 ([20]; Leukemia): 2.32 µM
Total growth inhibition (TGI) ([20]; Leukemia): 7.4 µM
CC50 [20, 30]: > 100 µM
GI50 ([21]; Breast): 1.42 µM
Total growth inhibition (TGI) ([21]; Breast): 3.47 µM
CC50 ([21]; read-out: 50% lethal concentration (LC50), Breast): 8.47 µM
GI50 ([22]; Leukemia): 0.59 µM
Total growth inhibition (TGI) ([22]; Leukemia): 3.37 µM
CC50 [22, 30]: > 100 µM
GI50 [23]: 1.86 µM
Total growth inhibition (TGI) [23]: 4.19 µM
CC50 [23, 29]: 9.43 µM
GI50 [24]: 1.64 µM
Total growth inhibition (TGI) [24]: 3.05 µM
CC50 [24, 29]: 5.67 µM
Total growth inhibition (TGI) ([25]; HOP-62, Non-Small Cell Lung): 3.84 µM
GI50 ([25]; HOP-62, Non-Small-Cell Lung): 1.87 µM
CC50 ([25]; read-out: 50% lethal concentration (LC50), HOP-62, Non-Small Cell Lung): 7.89 µM
GI50 [26]: 1.81 µM
LC50 (50% lethal concentration) [26]: 7.23 µM
Total growth inhibition (TGI) [26]: 3.62 µM
GI50 [27]: 1.82 µM
Total growth inhibition (TGI) [27]: 3.35 µM
CC50 [27, 29]: 6.16 µM
GI50 [28]: 1.65 µM
Total growth inhibition (TGI) [28]: 3.2 µM
CC50 [28, 29]: 6.22 µM
